Assay results from US20160279108A1, “TARGETED MTOR INHIBITORS” (UNIVERSITY OF KANSAS, priority 2015, published 2016).

Experiments:
[1] = mice, 2 mg/kg; cited from earlier work
[2] = Stak (US 20110201639 A1) for tacrolimus; cited from earlier work
[3] = cited from earlier work
[4] = i.v., rats, own previous studies; cited from earlier work
[5] = tested on: 4T1.2neu breast cancer; assay: Animal survival and tumor suppression study; settings: for median survival time: 10 mg/kg equivalent rapamycin once per week for 3 weeks, free rapamycin i.p., HA-L-Rapa s.c., control 17 days
[6] = Tissue distribution in tumor-bearing mice; type: in vivo, BALB/c mice; settings: for concentration at 12 h: female, BALB/c, mouse, intraperitoneal, 10 mg/kg
Protocol: Drug tissue distribution was determined in female BALB/c mice (n=5). Tissue samples (50 mg) in 500 μL PBS were homogenized using a Tissue Tearor (BioSpec Products, Inc., Bartivesville, Okla.). The homogenized tissue was mixed with 250 μL ZnSO4 and 500 μL methanol. The mixture solution was centrifuged and the supernatant was analyzed by LC/MS.
In the tissue distribution study, BLAB/c mice were administered the drugs 12 h before being euthanized. Major organs (liver, kidneys, hear, spleen, lungs, brain, muscle), tumor and lymph nodes were excised and lightly washed with PBS. The organs were stored at −80° C. until analyzed by LC/MS.

[7] = Pharmacokinetics study in rats; type: in vivo, Sprague-Dawley rats
Protocol: Whole blood was withdrawn (100 μL) from the tail vein at 0 min, 5 min, 30 min, 1 h, 2 h, 4 h, 6 h, 12 h, 24 h and 48 h after dosing and placed in heparinized tubes (BD Vacutainer® Lithium Heparin 37 USP unit, BD Franklin Lakes, N.J.). The whole blood was centrifuged at 15,000×g for 10 min, and the plasma was frozen at −80° C. until analyzed. The animal use statement was approved by the University of Kansas Institutional Animal Care and Use Committee. Plasma samples and stander curves were prepared using a procedure reported previously.

[8] = tested on: MDA-MB-468 cells; settings: 10 μM
Protocol: Breast cancer cells, MDA-MB-468, were seeded in a 12-well plate at the concentration of 50,000 cells/well in 1 mL of growth medium. After 12 h incubation, 10 μL of human anti-CD44 antibody was added to each well.

[9] = tested on: MDA-MB-468 cells; settings: MDA-MB-468 with H-CAM blocking of CD44, p=0.065
Protocol: Breast cancer MDA-MB-468 cells were maintained in Dulbecco's modified eagle medium supplemented with 10% fetal bovine serum (Hyclone Laboratory Inc., Logan, Utah). Cells were plated in white 96-well flat-bottomed plates at the concentration of 5,000 cells/well in 90 μL of growth medium. […] Hanks' solution and 10% trichloroacetic acid (TCA) were used as negative and positive control, respectively. The medium was refreshed 8 h after treatment. After 72 h post-treatment, resazurin blue (5 μM) was added and the resorufin product was measured with a fluorophotometer using an excitation wavelength of 550 nm and an emission wavelength of 590 nm.

[10] = in vivo; cited from earlier work
[11] = female, Sprague-Dawley, rat, plasma, ip, 10 mg/kg

For `CO[C@H]1C[C@@H]2CC[C@@H](C)[C@@](O)(O2)C(=O)C(=O)N2CCCC[C@H]2C(=O)O[C@H]([C@H](C)C[C@@H]2CC[C@@H](O)[C@H](OC)C2)CC(=O)[C@H](C)/C=C(\C)[C@@H](O)[C@@H](OC)C(=O)[C@H](C)C[C@H](C)/C=C/C=C/C=C/1C` [rapamycin], the “skin finding after subcutaneous administration” value [1] is listed as “skin ulceration”, the “stability at alkaline pH conditions” value [2] is listed as “degrade rapamycin rapidly in hours or less” and the “findings after i.v. administration” value [3] is listed as “injury (swelling and focal lesion) at the injection site, lymphoid atrophy and periarterial edema in the heart, liver”. The mortality [4] was 40%, the median survival time [5] was 15 days and the concentration at 12 h ([6]; brain) was 108 ± 37.4 ng/g. For the same molecule, the concentration at 12 h ([6]; heart) was 441 ± 81.6 ng/g, the concentration at 12 h ([6]; kidneys) was 469 ± 27.3 ng/g and the concentration at 12 h ([6]; liver) was 379 ± 40.6 ng/g. It also gave a concentration at 12 h ([6]; lungs) of 618 ± 299 ng/g, a concentration at 12 h ([6]; lymph nodes) of 705 ± 116 ng/g and a concentration at 12 h ([6]; muscle) of 316 ± 154 ng/g. It also gave a concentration at 12 h ([6]; spleen) of 183 ± 66.5 ng/g, a Mean concentration of rapamycin in Tumor ([6]; mice, 12 h post 10 mg/kg equivalent rapamycin, i.p. (free rapamycin), s.c. (HA-L-Rapa), Mean ± SD, n=5) of 1240 ± 256 ng/g and an AUC(0-inf) [7, 11] of 2360 ± 460 ng·h/mL. The Cmax [7, 11] was 173 ± 69.1 ng/mL, the half-life [7, 11] was 10.4 ± 3.76 h and the Vd ([7]; rats, free rapamycin i.p., HA-L-Rapa s.c., 10 mg/kg equivalent rapamycin, Mean ± SD, n=3) was 37.68 ± 15.49 L/kg. For the same molecule, the CI ([7]; rats, free rapamycin i.p., HA-L-Rapa s.c., Mean ± SD, n=3) was 70.5 ± 15.8 mL/min/kg.

In the case of `C=CC[C@@H]1/C=C(\C)C[C@H](C)C[C@H](OC)[C@H]2O[C@@](O)(C(=O)C(=O)N3CCCC[C@H]3C(=O)O[C@H](/C(C)=C/[C@@H]3CC[C@@H](O)[C@H](OC)C3)[C@H](C)[C@@H](O)CC1=O)[C@H](C)C[C@@H]2OC` [tacrolimus], the “stability at alkaline pH conditions” value [2] is listed as “stable at alkaline pH conditions for over a week”.

For “HA-Rapamycin-42-(3′-amino-4′-methoxy)benzoate [HA-L-Rapa]”, the “rapamycin uptake compared to the free drug” value ([8]; CD44 blocked with H-CAM, p=0.13) was “no difference”, the “drug uptake compared to free rapamycin” value ([8]; CD44 positive cells, p=0.012) was 3.2 times and the “cell viability compared to the free drug” value [9] was “no significant difference”. The “tumor volume on day 20 compared with the control group” value ([5]; 10 mg/kg equivalent rapamycin) was “significant decrease”, the median survival time [5] was 22 days and the “lung metastases observed at necropsy (animals of group)” value ([5]; 4T1.2neu model, n=5) was 1/5. For the same molecule, the “survival compared with control” value ([5]; BALB/c mice with 4T1.2neu breast cancer) was “significantly longer survival”, the “incidence of ulcerated tumor” value ([5]; mammary carcinoma bearing mice) was “diminished the incidence of ulcerated tumor” and the “tumor growth compared to the non-treatment group” value ([5]; mammary carcinoma bearing mice) was “significantly inhibited tumor growth”.

In the case of hyaluronic acid, the turnover half-life [10] is listed as 12 to 72 h.
